# Results from patent US20250034254A1, “USE OF ANTI-PD-1 ANTIBODY IN COMBINATION WITH CHEMOTHERAPY IN TREATING ESOPHAGEAL CANCER” (SHANGHAI JUNSHI BIOSCIENCES CO., LTD., priority 2021, published 2025).
# Columns and labels:
# [1] = tested on: patients with advanced or metastatic esophageal squamous cell carcinoma; test: Phase III clinical study of toripalimab (JS001) or placebo in combination with first-line chemotherapy: efficacy (ITT, RECIST 1.1); assay type: in vivo, human; conditions: for Objective response rate (ORR) / Objective response rate (ORR), number of subjects: RECIST 1.1; for DCR inter-group difference (95% CI) / ORR inter-group difference (95% CI): JS001 + TP versus Placebo + TP; for Duration of response (DOR), median: patients with BOR of CR or PR
# Text: (§1) This is a randomized, double-blind, placebo-controlled, multicenter, phase III clinical study evaluating the efficacy and safety of toripalimab (JS001) or placebo in combination with first-line chemotherapy in patients with advanced or metastatic esophageal squamous cell carcinoma that are not previously treated with systemic chemotherapy and exploring the population with optimal biomarker prediction.
# Eligible subjects shall meet the following criteria: (1) aged between 18 and 75 years; (2) histologically or pathologically confirmed metastatic or relapsed esophageal squamous cell carcinoma; (3) previously not treated for relapsed or metastatic ESCC; (4) at least one measurable lesion (according to RECIST 1.1); (5) an ECOG score of 0 or 1; (6) normal organ functions.
# (§2) Approximately 514 patients with advanced or metastatic esophageal squamous cell carcinoma were randomized into two groups in a ratio of 1:1, with the treatment group receiving toripalimab in combination with first-line chemotherapy and the control group receiving placebo in combination with first-line chemotherapy. The patients were stratified by ECOG score (0 vs 1) and previous radiotherapy (present vs absence).
# (§3) After randomization, the patients were subject to combination chemotherapy, receiving toripalimab or placebo+first-line chemotherapy for up to 6 cycles. After that, the patients were subject to maintenance therapy, continuously receiving toripalimab or placebo treatment until disease progression, intolerable toxicity, withdrawal from the study or up to 2 years.
# (§4) Toripalimab 240 mg/placebo was administered by intravenous infusion once every three weeks (Q3W) in treatment cycles of 21 days. Treatment continued until the patients met the discontinuation criteria, i.e., recorded disease progression, unacceptable AE, investigator-assessed unsuitability for continued treatment, withdrawal of informed consent, 2 years of JS001 treatment or other reasons as specified in the protocol.
# as §4, with “Toripalimab injection” for “Toripalimab”, “Q3W” for “once every three weeks (Q3W)”, “patient” for “patients”, “AEs,” for “AE,”
# The patients received JS001/placebo+first-line chemotherapy during the combination chemotherapy period (up to 6 cycles). After that, the patients were subject to maintenance monotherapy, continuously receiving JS001/placebo treatment until disease progression, intolerable toxicity, withdrawal from the study or up to 2 years.
# (§5) Intent-to-Treat (ITT) set: including all randomized patients during the primary study period. This analysis set was used as the primary analysis set for efficacy analysis. Per protocol set (PPS): including all ITT population having valid baseline information without major violation to the protocol that may affect the efficacy analysis. The PPS population was determined based on actual protocol violations before database lock of the study. The PPS population was used for sensitivity analysis of the primary efficacy endpoints as well as part of the secondary efficacy endpoints. Safety analysis set (SS): including all patients who received at least one dose of the study drug (JS001/placebo/chemotherapeutic agent).
# Unless otherwise specified, the efficacy analysis was based on the ITT set by treatment. […]
# [2] = Phase III clinical study of toripalimab (JS001) or placebo in combination with first-line chemotherapy: safety (SS population); conditions: human, in vivo
# Text: as §1, §2, §3, §4, §5
# All safety analyses were based on the SS population (514 patients), including 257 patients in the treatment group and 257 patients in the control group. Both groups were sufficiently exposed to JS001+chemotherapy treatment or placebo+chemotherapy treatment. The primary safety analysis results based on the SS population in the double-blind phase of the primary study are as follows: […]
# [3] = BICR-assessed, listed as treatment group
# [4] = ITT, as of Mar. 22, 2021, median follow-up 7.343 months
# [5] = ITT, assessed by the investigator
substance,measurement,setting,value
JS001 + TP: toripalimab 240 mg Q3W in combination with first-line chemotherapy TP (paclitaxel 175 mg/m^2 + cisplatin 75 mg/m^2),6-month DOR,[1]; BICR-assessed,47.4%
same,12-month DOR (1-year DOR rate),[1]; BICR-assessed,28.2%
same,Best overall response: Complete response (CR),[1]; BICR-assessed,(11.7) %
same,"Best overall response: Complete response (CR), number of subjects",[1]; BICR-assessed,30
same,"Best overall response: Not applicable, number of subjects",[1]; BICR-assessed,0
same,"Best overall response: Not evaluable (NE), number of subjects",[1]; BICR-assessed,0
same,Best overall response: Partial response (PR),[1]; BICR-assessed,(57.6) %
same,"Best overall response: Partial response (PR), number of subjects",[1]; BICR-assessed,148
same,Best overall response: Progressive disease (PD),[1]; BICR-assessed,(7.0) %
same,"Best overall response: Progressive disease (PD), number of subjects",[1]; BICR-assessed,18
same,"Best overall response: Stable disease (SD), number of subjects",[1]; BICR-assessed,51
same,Best overall response: non-CR/non-PD,[1]; BICR-assessed,(0.4) %
same,"Best overall response: non-CR/non-PD, number of subjects",[1]; BICR-assessed,1
same,DOR HR (95% CI),[1]; BICR-assessed,"0.58 (0.412, 0.810), P = 0.00136"
same,Disease control rate (DCR),[1]; BICR-assessed,89.1%
same,"Disease control rate (DCR), number of subjects",[1]; BICR-assessed,229
same,Objective response rate (ORR),[1]; BICR-assessed,69.3%
same,"Objective response rate (ORR), number of subjects",[1]; BICR-assessed,178
same,DCR inter-group difference (95% CI),[1]; BICR-assessed,"7.1 (1.1, 13.1) %"
same,ORR inter-group difference (95% CI),[1]; BICR-assessed,"17.2 (9.0, 25.4) %"
same,ORR inter-group difference (95% CI),[1]; [3],17.2%
same,DOR HR (95% CI),[1]; [3],0.58
same,"Duration of response (DOR), median",[1]; BICR-assessed,5.6 month
same,PFS subpopulation analysis,"[1]; BIRC, ECOG score, previous radiotherapy, disease stage, PD-L1 expression, 11q13, TMB subpopulations",superiority in PFS
same,OS subpopulation analysis,"[1]; ECOG score, previous radiotherapy, disease stage, PD-L1 expression, 11q13, TMB subpopulations",superiority in OS
same,"OS hazard ratio (HR), treatment vs control group",[1]; ITT population,0.58
same,median OS,[1]; ITT population,17.0 months
same,prolongation of median OS versus chemotherapy,[1]; ITT population,6 months
same,reduction of death hazard versus chemotherapy,[1]; ITT population,42%
same,"deaths reported, % of patients",[1]; [4],27.2%
same,"deaths reported, number of patients",[1]; [4],70
same,1-year PFS rate,"[1]; ITT, assessed by BIRC",27.8%
same,"PFS hazard ratio (HR), treatment vs control group","[1]; ITT, assessed by BIRC",0.58
same,reduction of progression or death hazard versus chemotherapy,"[1]; ITT, assessed by BIRC",42%
same,median PFS,"[1]; ITT, assessed by BIRC based on RECIST 1.1",5.7 months
same,"PFS hazard ratio (HR), treatment vs control group",[1]; [5],0.58
same,reduction of progression or death hazard versus chemotherapy,[1]; [5],42%
same,median PFS,"[1]; ITT, assessed by the investigator based on RECIST 1.1",7.0 months
same,6-month DOR,[1]; Investigator-assessed,55.6%
same,12-month DOR,[1]; Investigator-assessed,30.9%
same,Best overall response: Complete response (CR),[1]; Investigator-assessed,(5.1) %
same,"Best overall response: Complete response (CR), number of subjects",[1]; Investigator-assessed,13
same,"Best overall response: Not evaluable (NE), number of subjects",[1]; Investigator-assessed,0
same,Best overall response: Partial response (PR),[1]; Investigator-assessed,(67.3) %
same,"Best overall response: Partial response (PR), number of subjects",[1]; Investigator-assessed,173
same,Best overall response: Progressive disease (PD),[1]; Investigator-assessed,(3.9) %
same,"Best overall response: Progressive disease (PD), number of subjects",[1]; Investigator-assessed,10
same,"Best overall response: Stable disease (SD), number of subjects",[1]; Investigator-assessed,52
same,DOR HR (95% CI),[1]; Investigator-assessed,"0.50 (0.359, 0.684), P = 0.00001"
same,Disease control rate (DCR),[1]; Investigator-assessed,92.6%
same,"Disease control rate (DCR), number of subjects",[1]; Investigator-assessed,238
same,Objective response rate (ORR),[1]; Investigator-assessed,72.4%
same,"Objective response rate (ORR), number of subjects",[1]; Investigator-assessed,186
same,DCR inter-group difference (95% CI),[1]; Investigator-assessed,"5.5 (0.3, 10.7) %"
same,ORR inter-group difference (95% CI),[1]; Investigator-assessed,"14.1 (6.0, 22.2) %"
same,ORR inter-group difference (95% CI),"[1]; Investigator-assessed, listed as treatment group",14%
same,"Duration of response (DOR), median",[1]; Investigator-assessed,4.2 month
same,prolongation of DOR over the control group,[1]; assessed by BIRC,1.4 months
same,SAE: anemia,[2],1.2%
same,SAE: asthenia,[2],1.2%
same,SAE: bone marrow depression,[2],1.2%
same,SAE: decreased leukocyte count,[2],2.3%
same,SAE: decreased neutrophil count,[2],1.6%
same,SAE: decreased platelet count,[2],1.6%
same,SAE: dysphagia,[2],1.2%
same,SAE: infectious pneumonitis,[2],5.1%
same,SAE: vomiting,[2],8.9%
same,TEAE: alopecia,[2],35.4%
same,TEAE: anemia,[2],77.0%
same,TEAE: asthenia,[2],41.6%
same,TEAE: constipation,[2],24.1%
same,TEAE: decreased appetite,[2],39.3%
same,TEAE: decreased leukocyte count,[2],67.7%
same,TEAE: decreased neutrophil count,[2],66.9%
same,TEAE: decreased platelet count,[2],28.4%
same,TEAE: diarrhea,[2],23.0%
same,TEAE: nausea,[2],42.8%
same,TEAE: vomiting,[2],40.1%
same,TEAE: weight loss,[2],28.8%
same,"immune-related adverse events (irAEs), % of patients",[2],37%
same,"immune-related adverse events (irAEs), number of patients",[2],95
same,irAE resulting in death,[2],no irAE resulting in death was reported
same,"irAEs of grade 3 or higher, % of subjects",[2],6.6%
same,"irAEs of grade 3 or higher, number of subjects",[2],17
same,proportion of SAEs of grade 3 or higher as per CTCAE,[2],30.0%
same,proportion of TEAEs of grade 3 or higher as per CTCAE,[2],73.2%
same,proportion of patients who experienced at least 1 TEAE,[2],99.2%
same,proportion of treatment-emerged SAEs,[2],36.2%
